Where a name gives a salt, the structure may show the parent alone. Read-outs that look alike come from different tables or passages of the source.
Experiments:
HIV-1 (HTLVIIIB) = assay: microbe, parasite or virus in culture; format: cell-based; conditions: H9 cells; for IC50: Human immunodeficiency virus 1
Experimental: (§2) The effects for test compounds were assessed by means of both IFA and p24 release. In general, the following protocol was followed: H9 cells were infected with HIV-1 at 1000 50% infective doses of viruses/10^6 cells. Virus was allowed to adsorb for 1 h, after which unadsorbed virus was removed by centrifugation. The cells were resuspended and washed twice with PBS (without Ca^+2 or Mg^+2 salts) and centrifuged to collect the cell pellet (150×g×10 min). Cells were suspended in fresh medium and added at a final cell density of 500,000 cells/ml in a 96-well plate with media containing 0.1% DMSO and various concentrations of test compounds. The cells were re-fed freshly prepared media containing 0.1% DMSO±test compounds on day four (for preinduction experiments, cells were exposed to inducers on days -2, 0, and +4 days relative to infection). After seven days, cells were examined for cytoxicity by trypan blue exclusion, the degree of infection with HIV-1 by IFA, and the supernatants were assayed for p24 levels according to the manufacturer's directions. The IFA procedure can be summarized as follows: The cells were washed twice in PBS and were placed in 5 mm 12-well slides. After allowing the slides to dry and fixing the cells with acetone for 5 min, 10 μl of HIV-1 positive serum in 40 μl PBS was added to each well and allowed to incubate at 37° C. for 30 min. After incubation, the slides were washed twice with PBS and incubated at 37° C. for 30 min with 2.5 μl goat anti-human IgG-fluorescein isothiocyanate conjugate in 50 μl PBS containing 0.01% Evans Blue per well. The slides were then washed twice with PBS, dried, and mounted with 50% glycerol in PBS, and scored for the percentage of fluorescent cells by fluorescent microscopy.

[1] = system: quinone reductase (QR) in H9 cells; assay: Elevation of quinone reductase (QR) in H9 cells; format: cell-based, human; conditions: dose- and time-dependent, H9 cells
Experimental: (§1) Five ml of medium was added to T-25 flasks and DMSO containing tests compounds were added to a final concentration of 0.1%. Control medium contained 0.1% DMSO. After the drugs were added, 5×10^6 cells in 5 ml of medium was added to each T-25 flask. The cells were grown at 37° C. in a humidified incubator supplemented with 5% CO2 until harvested (N=3 flasks/group). At the indicated times, cells were isolated by centrifugation (500×g×10 min) and were washed three times by adding 10 ml of ice-cold DPBS, mixing, and centrifuging in a refrigerated centrifuge (500×g×10 min) to isolate the cell pellets. The cells were then lysed by the addition of 400 μl of ice-cold DPBS containing 0.5% Triton X-100 and vortexing. Supernatants were then isolated by centrifuging the lysates (5000×g×20 min). Samples were kept on ice or refrigerated until the reagents for QR or GSH spectrophotometric assays were added to the aliquoted microtiter plates. QR levels were determined by aliquoting 10 μl/well of supernatant in a 96-well plate and measuring the activity by the assay described by Prochaska and Santamaria (20) except that the final NADP^+ concentration was 200 μM (21). Samples were assayed in quadruplicate, and dicoumarol inhibitable-rates (which generally represented less than 5% of the total rate) were also measured. Spectrophotometric blanks contained 10 μl of DPBS with 0.5% Triton X-100. For the GSH assay, 300 μl of sample was placed in a centricon-10microconcentrator and centrifuged (5000×g×45 min) until enough ultrafiltrate could be collected. 50 μl/well of sample in quadruplicate was placed in a 96 well "half-area" plate after which 20 μl of 1 mM Ellman's reagent dissolved in DPBS was added. The yellow color (22) developed within 5 min and was scanned with a uvmax microtiter scanner (Palo Alto, Calif.) at 405 nm. Spectrophotometric blanks contained 50 μl DPBS with 0.5% Triton X-100 and 20 μl of 1 mM Ellman's reagent in DPBS. The optical densities of the specimens were calibrated to a GSH standard curve. Protein contents were determined in 3 ml cuvettes by the Bradford method (23). The protein content in the ultrafiltrates employed for GSH determinations were negligible (<0.01 mg/ml).
We confirmed that the induction of QR in microtiter wells mirrored our results in T-25 flasks by using the method of Prochaska and Santamaria (20). Medium (100 μl) containing 0.1% final concentration DMSO was added to all wells except columns designated to contain the highest concentration of drug or spectrophotometric blanks in duplicate sets of U-bottomed microtiter plates. 200 μl of media containing drug (final DMSO concentration=0.1%) was added to the empty column of wells and then diluted in 2-fold serial dilutions across. After the serial dilutions were performed, 100 μl of media containing 1×10^6 cells/ml was added to each well, and the plates were placed in a 37° C. incubator for 48 h. One set of plates was assayed as described (21) for QR activity, the other was assayed for cell number by the method for Alley et al. (24).

H9 cells = assay: Cytotoxicity in H9 cells by trypan blue exclusion; format: cell-based, human
Experimental: as §2

[2] = system: glutathione levels (GSH) in H9 cells; assay: Elevation of glutathione (GSH) levels in H9 cells; format: cell-based, human; conditions: dose- and time-dependent, H9 cells
Experimental: as §1

[3] = Exp 1, IFA, read-out: IC50 HIV-1 replication (Exp 1)
[4] = Exp 2, IFA, read-out: IC50 HIV-1 replication (Exp 2)

| Structure (SMILES) | IC50 (HIV-1 (HTLVIIIB); [3]) [nM] | IC50 (HIV-1 (HTLVIIIB); [4]) [nM] | also measured |
| --- | --- | --- | --- |
| CC(C)c1ccc(Nc2ssc(=S)c2Cl)cc1 [compound 18] | 400 | > 60000 |  |
| CC(C)c1ccc(Nc2ssc(=O)c2Cl)cc1 [compound 19] | > 60000 | 1000 |  |
| CC(C)N(C(=O)Cc1c(-c2cncnc2)ssc1=S)C(C)C [compound 21] | 1000 | > 60000 |  |
| S=c1ssc(-c2cccnn2)c1CCc1ccccc1 [compound 22] | 400 | > 60000 |  |
| CN(C)CCCON=c1cc(-c2ccncc2)ss1 [compound 23] | 400 | > 60000 |  |
| CCCCc1c(-c2ccc(N(C)C)nn2)ssc1=S [compound 24] |  |  | IC50 HIV-1 replication (Exp 1) (HIV-1 (HTLVIIIB); Exp 1, IFA): Inactive; IC50 HIV-1 replication (Exp 2) (HIV-1 (HTLVIIIB); Exp 2, IFA): Inactive |
| COC(=O)/C=C/C(=O)OC [dimethyl fumarate] |  |  | inhibition of HIV-1 replication (HIV-1 (HTLVIIIB); up to 60 μM): inactive; elevation of QR [1]: able to elevate both GSH and QR levels; cytotoxicity at optimal inductive doses (H9 cells): non-cytotoxic; elevation of GSH [2]: able to elevate both GSH and QR levels |
| CC(C)(C)c1cc(O)ccc1O [tert-butylhydroquinone] |  |  | inhibition of HIV-1 replication (HIV-1 (HTLVIIIB); up to 30 μM): inactive; elevation of QR [1]: able to elevate both GSH and QR levels; cytotoxicity at optimal inductive doses (H9 cells): non-cytotoxic; elevation of GSH [2]: able to elevate both GSH and QR levels |

Second part, led by results:

| IC50 (HIV-1 (HTLVIIIB); [3]) [nM] | IC50 (HIV-1 (HTLVIIIB); [4]) [nM] | Structure (SMILES) | also measured |
| --- | --- | --- | --- |
| 400 | 200 | OCc1c(-c2cnccn2)ssc1=S [compound 13] |  |
| 15000 | 15000 | CCc1c(-c2cnccn2)ssc1=S [compound 14] |  |
| 2000 | 2000 | CCCCc1c(-c2cnccn2)ssc1=S [compound 15] |  |
| 1000 | 4000 | CCOC(=O)c1c(-c2ccccn2)ssc1=S [compound 16] |  |
| 15000 | > 60000 | CCOC(=O)c1c(-c2ccncc2)ssc1=S [compound 17] |  |
| > 60000 | > 60000 | CCOC(=O)Cc1c(-c2cncnc2)ssc1=S [compound 20] |  |

From patent publication US5691338A, “1,2-dithiole-3 thiones for the treatment of reverse transcriptase-dependent viral infections” (priority 1995, dated 1997)
